Test results: ChEMBL document CHEMBL1201862, “PubChem BioAssay data set” (2004)
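Test compounds were applied to cells in 96-well plates for 48 hours at 5 doses. GI50: concentration for 50% inhibition of growth.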 Active and inactive are the calls of the source. Rule as the data show it: active = GI50 up to about 1.1 µM and inactive = higher. Where a SMILES comes first, the peptide text is derived from it. [ ]: non-standard residue; d: D form. The star is where a group is joined. ξ: configuration not given here. ξD = NC(CC(=O)O)C(=O)O; Boc = CC(C)(C)OC(=O)*; Aib = CC(C)(N)C(=O)O; OtBu = CC(C)(C)O*

Legend:
Test in all cases: NCI tumour cell line growth inhibition, 48 h
[1] = system: SK-MEL-2
[2] = system: UACC-257
[3] = system: OVCAR-8
[4] = system: LOX IMVI
[5] = system: BT-549
[6] = system: SR
[7] = system: TK-10
[8] = system: K562
[9] = system: MDA-N
[10] = system: A549
[11] = system: OVCAR-4
[12] = system: SK-OV-3
[13] = system: MDA-MB-231
[14] = system: MCF7
[15] = system: RXF 393
[16] = system: HT-29
[17] = system: OVCAR-5
[18] = system: OVCAR-3

Measured: GI50

CC(=O)[C@@H](C)C(=O)N1C(=O)OC[C@@]12[C@@H]1CC[C@@H](C1)C2(C)C
inactive: [1] > 100 µM | [2] > 100 µM | [3] > 100 µM | [4] > 100 µM | [5] > 100 µM | [6] 78.7 µM | [7] > 100 µM | [8] > 100 µM | [9] > 100 µM | [10] > 100 µM | [11] > 100 µM | [12] > 100 µM | [13] > 100 µM | [14] > 100 µM | [15] > 100 µM | [16] > 100 µM | [17] > 100 µM

COc1ccc(C2c3cc4c(cc3OC(NNc3ccccc3)C2C)OCO4)cc1 (stereo unspecified)
inactive: [1] 21.7 µM | [2] 5.79 µM | [3] 24.9 µM | [4] 16.6 µM | [5] 20.4 µM | [6] 1.71 µM | [7] 8.97 µM | [8] 1.7 µM | [9] 8.71 µM | [10] 4.09 µM | [12] > 100 µM | [13] 23.2 µM | [14] 4.04 µM | [18] 4.82 µM | [15] 8.51 µM | [16] 11.6 µM | [17] 7.33 µM

C=CC(C)(C)n1cc(C2=C3OC(=O)C(c4cn(C(C)(C)C=C)c5ccccc45)=C3OC2=O)c2ccccc21
inactive: [1] > 100 µM | [2] > 100 µM | [3] > 100 µM | [4] > 100 µM | [5] > 100 µM | [6] > 100 µM | [7] > 100 µM | [8] > 100 µM | [9] > 100 µM | [10] > 100 µM | [11] > 100 µM | [13] > 100 µM | [14] > 100 µM | [18] > 100 µM | [15] > 100 µM | [16] > 100 µM | [17] > 100 µM

COC(=O)c1nn2ccc3ccccc3c2c1C(=O)OC
inactive: [1] > 100 µM | [2] 60.7 µM | [3] > 100 µM | [4] 83.6 µM | [5] 63.5 µM | [6] 41.1 µM | [7] > 100 µM | [8] 58.7 µM | [9] 34.8 µM | [10] > 100 µM | [11] > 100 µM | [12] > 100 µM | [13] 53 µM | [14] > 100 µM | [15] 59.2 µM | [16] 48 µM | [17] > 100 µM

Oc1ccc[nH]c1=[Se]
inactive: [1] > 100 µM | [2] > 100 µM | [3] 37.2 µM | [4] 64.6 µM | [5] 55.1 µM | [6] 36.3 µM | [7] 55.3 µM | [8] 36.2 µM | [9] 57 µM | [10] 32.9 µM | [12] 87.1 µM | [13] > 100 µM | [14] 65.5 µM | [18] > 100 µM | [15] > 100 µM | [16] > 100 µM | [17] 57.1 µM

CCOC(=O)c1cc(C2(OC)CCN(Cc3ccccc3)C2=O)c(-c2cc(C)no2)[nH]1 (stereo unspecified)
inactive: [1] > 100 µM | [2] > 100 µM | [3] > 100 µM | [5] > 100 µM | [7] > 100 µM | [8] > 100 µM | [9] > 100 µM | [10] > 100 µM | [11] > 100 µM | [12] > 100 µM | [13] > 100 µM | [14] 94.6 µM | [18] > 100 µM | [15] 99.5 µM | [16] 75.7 µM | [17] > 100 µM

COC(=O)C(C)(C)NC(=O)C(C)(C)NC(=O)C(CC(=O)OC(C)(C)C)NC(=O)OC(C)(C)C (stereo unspecified) (Boc-[ξD](OtBu)-[Aib]-[Aib]-OMe)
inactive: [1] > 100 µM | [2] > 100 µM | [3] > 100 µM | [4] > 100 µM | [5] > 100 µM | [7] > 100 µM | [8] > 100 µM | [9] > 10 µM | [10] > 100 µM | [11] > 100 µM | [12] > 100 µM | [13] > 100 µM | [14] > 100 µM | [18] > 100 µM | [15] > 100 µM | [16] > 100 µM | [17] > 100 µM

NC(=S)N/N=C1\C(=O)C=C(Nc2ccc(Cl)cc2Cl)c2ccccc21
inactive: [1] 39.3 µM | [2] > 100 µM | [3] 21.9 µM | [4] 25.3 µM | [5] 18.7 µM | [7] 32.4 µM | [9] > 100 µM | [10] > 100 µM | [11] 33.2 µM | [12] 12.4 µM | [13] 10.3 µM | [14] 48.9 µM | [18] 21.3 µM | [15] 18.6 µM | [16] > 100 µM | [17] > 100 µM

Cc1ccccc1S(=O)(=O)Nn1cnc2ccc(S(=O)(=O)Nc3ccc(Cl)cc3)cc2c1=O
inactive: [1] 16.6 µM | [2] > 100 µM | [3] > 100 µM | [4] > 100 µM | [5] > 100 µM | [6] > 100 µM | [7] > 100 µM | [8] 10 µM | [9] 53.1 µM | [10] > 100 µM | [11] > 100 µM | [12] > 100 µM | [13] > 100 µM | [14] > 100 µM | [18] 85.5 µM | [16] > 100 µM | [17] > 100 µM

C[C@]12CC[C@H]3[C@@H](CC=C4C[C@@H](N5CCCC5)CC[C@@]43C)[C@@H]1C[C@H](N1CCCCC1)[C@@H]2O
inactive: [2] 23.3 µM | [3] > 100 µM | [4] 33.3 µM | [5] > 100 µM | [6] 11.4 µM | [7] > 100 µM | [8] 16.9 µM | [9] 61.1 µM | [10] > 100 µM | [11] > 100 µM | [12] > 100 µM | [13] > 100 µM | [14] > 100 µM | [18] > 100 µM | [15] > 100 µM | [16] 14.3 µM | [17] 99.8 µM

COc1cc(/C=C2\N=C(c3ccccc3)N(c3ccc4c(c3)Sc3cc(N5C(=O)/C(=C/c6cc(OC)c(OC)c(OC)c6)N=C5c5ccccc5)ccc3N4)C2=O)cc(OC)c1OC
inactive: [1] 18.5 µM | [2] 16.9 µM | [3] 18.5 µM | [4] 22.4 µM | [5] 23.4 µM | [7] 16.9 µM | [8] 21 µM | [9] 19.8 µM | [10] 37.6 µM | [11] 18.9 µM | [12] 21.3 µM | [13] 25.7 µM | [14] 21 µM | [18] 20.8 µM | [15] 20.7 µM | [16] > 100 µM | [17] 20.6 µM

Cc1cccc2c1Oc1cc(Cl)ccc1C2NC(=O)CCN1CCN(CCO)CC1 (stereo unspecified)
inactive: [2] 16.6 µM | [3] 13.4 µM | [4] 2.75 µM | [5] 15.1 µM | [6] 21.8 µM | [7] > 10 µM | [8] 18.2 µM | [9] 4.25 µM | [10] 11.5 µM | [11] 16 µM | [12] 25.9 µM | [13] 3.69 µM | [14] 15.2 µM | [18] 17.7 µM | [16] 15 µM | [17] 21.1 µM

C=CC[C@]12C=C(OC)[C@@H](O)[C@](OC)(C(c3cc(OC)c4c(c3)OCO4)[C@H]1C)[C@H]2OC(C)=O (stereo partly specified)
inactive: [1] > 100 µM | [2] > 100 µM | [3] > 100 µM | [5] > 100 µM | [6] > 100 µM | [7] > 100 µM | [8] > 100 µM | [9] > 100 µM | [10] > 100 µM | [11] 69.2 µM | [12] 61.1 µM | [13] > 100 µM | [14] > 100 µM | [18] > 100 µM | [15] > 100 µM | [16] > 100 µM | [17] > 100 µM

C=C(C)C1Cc2cc(C(C)=O)ccc2O1 (stereo unspecified)
inactive: [1] > 100 µM | [2] > 100 µM | [3] > 100 µM | [4] > 100 µM | [5] > 100 µM | [7] > 100 µM | [8] > 100 µM | [9] > 100 µM | [10] > 100 µM | [11] > 100 µM | [12] > 100 µM | [13] > 100 µM | [14] > 100 µM | [18] > 100 µM | [16] > 100 µM | [17] > 100 µM

CCC1OC(=O)CC(O)C(C)C(OC2OC(C)CC(N(C)C)C2O)C(CC=O)CC(C)C(=O)/C=C/C2(C)OC2C1C (stereo unspecified)
inactive: [1] 45.2 µM | [2] > 100 µM | [3] 22.4 µM | [4] 17.3 µM | [5] 15.1 µM | [6] 13.9 µM | [8] 6.76 µM | [9] 25.8 µM | [10] 49.4 µM | [12] 27.2 µM | [13] 28.3 µM | [14] 5.47 µM | [18] 22.8 µM | [15] 17.2 µM | [16] 17.9 µM | [17] 41.3 µM

CCOC(=O)c1nc2cc(C(F)(F)F)ccc2nc1Oc1ccc(C(=O)OC)cc1
inactive: [1] > 100 µM | [2] > 100 µM | [3] > 100 µM | [4] 83.8 µM | [5] > 100 µM | [6] > 100 µM | [7] > 100 µM | [8] > 100 µM | [9] > 100 µM | [10] > 100 µM | [11] 78.7 µM | [13] > 100 µM | [14] > 100 µM | [18] > 100 µM | [15] 85.5 µM | [17] > 100 µM
